Counter-ions that a name gives are not always drawn.
Target: T1, Human Polθ polymerase domain (aa1820-2590) (Homo sapiens, UniProt O75417)
T1 construct: Human Polθ polymerase domain (aa1820-2590) was expressed in E. Coli; made in house; host or cells: E. coli
T1 sequence (O75417 1820-2590): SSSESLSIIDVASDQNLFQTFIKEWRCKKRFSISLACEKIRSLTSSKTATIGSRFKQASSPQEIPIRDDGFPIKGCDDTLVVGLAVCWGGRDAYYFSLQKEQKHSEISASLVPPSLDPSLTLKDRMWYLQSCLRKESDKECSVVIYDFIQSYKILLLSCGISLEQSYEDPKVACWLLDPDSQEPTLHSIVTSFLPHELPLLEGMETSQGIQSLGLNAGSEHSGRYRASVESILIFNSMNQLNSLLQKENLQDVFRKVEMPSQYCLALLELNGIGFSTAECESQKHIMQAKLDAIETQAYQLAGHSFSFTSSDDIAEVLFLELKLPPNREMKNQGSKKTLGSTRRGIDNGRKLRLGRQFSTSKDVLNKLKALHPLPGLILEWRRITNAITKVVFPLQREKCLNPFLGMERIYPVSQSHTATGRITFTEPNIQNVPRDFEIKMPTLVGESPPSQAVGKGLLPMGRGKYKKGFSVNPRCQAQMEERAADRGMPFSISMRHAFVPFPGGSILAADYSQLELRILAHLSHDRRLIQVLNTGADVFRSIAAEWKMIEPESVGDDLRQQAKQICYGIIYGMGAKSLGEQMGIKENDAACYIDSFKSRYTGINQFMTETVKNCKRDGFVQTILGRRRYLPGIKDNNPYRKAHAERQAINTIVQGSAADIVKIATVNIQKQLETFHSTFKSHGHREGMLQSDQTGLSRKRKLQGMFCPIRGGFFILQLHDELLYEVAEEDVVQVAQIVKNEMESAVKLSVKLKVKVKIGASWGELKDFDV
Assay: Polθ Polymerase Domain WT KI Assay (PicoGreen)
Assay type: biochemical
Conditions: 100 nM DNA substrate, 0.156 nM Polθ, initial rates vs inhibitor concentration
Outline: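 E. coli-expressed human Polθ polymerase domain (aa1820-2590) on annealed DNA II Short/Long primer-template (1.2:1), in 25 mM Tris pH 7.5, NaCl, 5% glycerol, 0.01% Triton X-100, 0.1 mg/ml BSA, 1 mM DTT, 1% DMSO. EDTA-quenched timepoints to 180 min, PicoGreen fluorescence. Initial rates vs inhibitor concentration fitted four-parameter for KI.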

Row | Structure (SMILES) | Ki [nM]
1 | CC(=O)N1CCN(CCN2C[C@H]3CC(=O)N(c4cc(C(F)(F)F)cc(C)n4)[C@@H]3C(=O)N(C)c3cccc(C)c32)[C@@H](C)C1 [Example 74, (3aR,11aS)-5-(2-((S)-4-Acetyl-2-methylpiperazin-1-yl)ethyl)-6,10-dimethyl-1-(6-methyl-4-(trifluoromethyl)pyridin-2-yl)-1,3a,4,5,10,11a-hexahydro-2H-benzo[b]pyrrolo[2,3-f][1,4]diazocine-2,11(3H)-dione] | 1.21
2 | Cc1cc(C(F)(F)F)cc(N2C(=O)C[C@@H]3CN(CCN4CCOCC4)c4c(C)cccc4NC(=O)[C@H]32)n1 [Example 147, (3aR,11aS)-6-Methyl-1-(6-methyl-4-(trifluoromethyl)pyridin-2-yl)-5-(2-morpholinoethyl)-1,3a,4,5,10,11a-hexahydro-2H-benzo[b]pyrrolo[2,3-f][1,4]diazocine-2,11(3H)-dione] | 3.62
3 | Cc1cc(C(F)(F)F)cc(N2C(=O)C[C@@H]3CN(CCOCCN(C)C)c4c(C)cccc4N(C)C(=O)[C@H]32)n1 [Example 90, (3aR,11aS)-5-(2-(2-(Dimethylamino)ethoxy)ethyl)-6,10-dimethyl-1-(6-methyl-4-(trifluoromethyl)pyridin-2-yl)-1,3a,4,5,10,11a-hexahydro-2H-benzo[b]pyrrolo[2,3-f][1,4]diazocine-2,11(3H)-dione] | 0.991
4 | CC(=O)N1CCN(CCN2C[C@H]3CC(=O)N(c4cc(C(F)(F)F)cc(C)n4)[C@@H]3C(=O)N(C)c3cccc(C)c32)CC1 [Example 55, (3aR,11aS)-5-(2-(4-Acetylpiperazin-1-yl)ethyl)-6,10-dimethyl-1-(6-methyl-4-(trifluoromethyl)pyridin-2-yl)-1,3a,4,5,10,11a-hexahydro-2H-benzo[b]pyrrolo[2,3-f][1,4]diazocine-2,11(3H)-dione hydrochloride] | 0.891
5 | Cc1cc(C(F)(F)F)cc(N2C(=O)C[C@@H]3CN(C[C@H]4CCNC4)c4c(C)cccc4N(C)C(=O)[C@H]32)n1 [Example 104, (3aR,11aS)-6,10-Dimethyl-1-(6-methyl-4-(trifluoromethyl)pyridin-2-yl)-5-(((S)-pyrrolidin-3-yl)methyl)-1,3a,4,5,10,11a-hexahydro-2H-benzo[b]pyrrolo[2,3-f][1,4]diazocine-2,11(3H)-dione hydrochloride] | 2.95
6 | Cc1cc(C(F)(F)F)cc(N2C(=O)C[C@@H]3CN(CC4CCN(C)CC4)c4c(C)cccc4N(C)C(=O)[C@H]32)n1 [Example 79, (3aR,11aS)-6,10-Dimethyl-1-(6-methyl-4-(trifluoromethyl)pyridin-2-yl)-5-((1-methylpiperidin-4-yl)methyl)-1,3a,4,5,10,11a-hexahydro-2H-benzo[b]pyrrolo[2,3-f][1,4]diazocine-2,11(3H)-dione] | 1.36
7 | Cc1cc(C(F)(F)F)cc(N2C(=O)C[C@@H]3CN(CCCN(C)C)c4c(Cl)cccc4N(C)C(=O)[C@H]32)n1 [Example 135, (3aR,11aS)-6-Chloro-5-(3-(dimethylamino)propyl)-10-methyl-1-(6-methyl-4-(trifluoromethyl)pyridin-2-yl)-1,3a,4,5,10,11a-hexahydro-2H-benzo[b]pyrrolo[2,3-f][1,4]diazocine-2,11(3H)-dione] | 3.49
8 | Cc1cc(C(F)(F)F)cc(N2C(=O)C[C@@H]3CN(CCN4C[C@@H]5C[C@H]4CN5)c4c(C)cccc4N(C)C(=O)[C@H]32)n1 [Example 59, (3aR,11aS)-5-(2-((1S,4S)-2,5-Diazabicyclo[2.2.1]heptan-2-yl)ethyl)-6,10-dimethyl-1-(6-methyl-4-(trifluoromethyl)pyridin-2-yl)-1,3a,4,5,10,11a-hexahydro-2H-benzo[b]pyrrolo[2,3-f][1,4]diazocine-2,11(3H)-dione dihydrochloride] | 1.13
9 | Cc1cc(C(F)(F)F)cc(N2C(=O)C[C@@H]3CN(CCN4CC[C@H](N(C)C)[C@H](F)C4)c4c(Cl)cccc4N(C)C(=O)[C@H]32)n1 [Example 35, (3aR,11aS)-6-Chloro-5-(2-((3R,4S)-4-(dimethylamino)-3-fluoropiperidin-1-yl)ethyl)-10-methyl-1-(6-methyl-4-(trifluoromethyl)pyridin-2-yl)-1,3a,4,5,10,11a-hexahydro-2H-benzo[b]pyrrolo[2,3-f][1,4]diazocine-2,11(3H)-dione hydrochloride] | 1.09
10 | Cc1cc(C(F)(F)F)cc(N2C(=O)C[C@@H]3CN(CCCN(C)C)c4c(C)cccc4N(C)C(=O)[C@H]32)n1 [Example 128, (3aR,11aS)-5-(3-(Dimethylamino)propyl)-6,10-dimethyl-1-(6-methyl-4-(trifluoromethyl)pyridin-2-yl)-1,3a,4,5,10,11a-hexahydro-2H-benzo[b]pyrrolo[2,3-f][1,4]diazocine-2,11(3H)-dione] | 1.39
11 | Cc1cc(C(F)(F)F)cc(N2C(=O)C[C@@H]3CN(C[C@@H]4CCNC4)c4c(C)cccc4N(C)C(=O)[C@H]32)n1 [Example 103, (3aR,11aS)-6,10-Dimethyl-1-(6-methyl-4-(trifluoromethyl)pyridin-2-yl)-5-(((R)-pyrrolidin-3-yl)methyl)-1,3a,4,5,10,11a-hexahydro-2H-benzo[b]pyrrolo[2,3-f][1,4]diazocine-2,11(3H)-dione hydrochloride] | 2.43

Other lines, results leading:

Row | Ki [nM] | Structure (SMILES)
12 | 0.882 | Cc1cc(C(F)(F)F)cc(N2C(=O)C[C@@H]3CN(C[C@H]4CCN(C)[C@H](C)C4)c4c(Cl)cccc4N(C)C(=O)[C@H]32)n1 (single isomer, unassigned) [Example 126c]
13 | 5.56 | Cc1cc(C(F)(F)F)cc(N2C(=O)C[C@@H]3CN(CCN(C)CCO)c4c(C)cccc4N(C)C(=O)[C@H]32)n1 [Example 54, (3aR,11aS)-5-(2-((2-Hydroxyethyl)(methyl)amino)ethyl)-6,10-dimethyl-1-(6-methyl-4-(trifluoromethyl)pyridin-2-yl)-1,3a,4,5,10,11a-hexahydro-2H-benzo[b]pyrrolo[2,3-f][1,4]diazocine-2,11(3H)-dione]
14 | 0.421 | Cc1cc(C(F)(F)F)cc(N2C(=O)C[C@@H]3CN(Cc4cn5c(n4)[C@H](C)N(C)CC5)c4c(C)cccc4N(C)C(=O)[C@H]32)n1 (racemic) [Example 116b, (3aR,11aS)-5-(((S/R)-7,8-Dimethyl-5,6,7,8-tetrahydroimidazo[1,2-a]pyrazin-2-yl)methyl)-6,10-dimethyl-1-(6-methyl-4-(trifluoromethyl)pyridin-2-yl)-1,3a,4,5,10,11a-hexahydro-2H-benzo[b]pyrrolo[2,3-f][1,4]diazocine-2,11(3H)-dione]
15 | 0.258 | Cc1cc(C(F)(F)F)cc(N2C(=O)C[C@@H]3CN(Cc4cn5c(n4)CN(C)CC5)c4c(C)cccc4N(C)C(=O)[C@H]32)n1 [Example 121, (3aR,11aS)-6,10-Dimethyl-1-(6-methyl-4-(trifluoromethyl)pyridin-2-yl)-5-((7-methyl-5,6,7,8-tetrahydroimidazo[1,2-a]pyrazin-2-yl)methyl)-1,3a,4,5,10,11a-hexahydro-2H-benzo[b]pyrrolo[2,3-f][1,4]diazocine-2,11(3H)-dione]
16 | 11.8 | Cc1cc(C(F)(F)F)cc(N2C(=O)C[C@@H]3CN(CC(C)O)c4c(F)cccc4N(C)C(=O)[C@H]32)n1 (mixture of isomers) [Example 130a, (3aR,11aS)-6-fluoro-5-((S/R)-2-hydroxypropyl)-10-methyl-1-(6-methyl-4-(trifluoromethyl)pyridin-2-yl)-1,3a,4,5,10,11a-hexahydro-2H-benzo[b]pyrrolo[2,3-f][1,4]diazocine-2,11(3H)-dione]
17 | 2.18 | Cc1cc(C(F)(F)F)cc(N2C(=O)C[C@@H]3CN(CCN4CCN(C)C[C@@H]4C)c4c(Cl)cccc4N(C)C(=O)[C@H]32)n1 [Example 10, (3aR,11aS)-6-Chloro-5-(2-((S)-2,4-dimethylpiperazin-1-yl)ethyl)-10-methyl-1-(6-methyl-4-(trifluoromethyl)pyridin-2-yl)-1,3a,4,5,10,11a-hexahydro-2H-benzo[b]pyrrolo[2,3-f][1,4]diazocine-2,11(3H)-dione Hydrochloride]
18 | 1.85 | Cc1cc(C(F)(F)F)cc(N2C(=O)C[C@@H]3CN(CCOCCN(C)C)c4c(Cl)cccc4N(C)C(=O)[C@H]32)n1 [Example 89, (3aR,11aS)-6-Chloro-5-(2-(2-(dimethylamino)ethoxy)ethyl)-10-methyl-1-(6-methyl-4-(trifluoromethyl)pyridin-2-yl)-1,3a,4,5,10,11a-hexahydro-2H-benzo[b]pyrrolo[2,3-f][1,4]diazocine-2,11(3H)-dione hydrochloride]
19 | 1.56 | Cc1cc(C(F)(F)F)cc(N2C(=O)C[C@@H]3CN(C[C@H]4CCN(C)[C@@H](C)C4)c4c(Cl)cccc4N(C)C(=O)[C@H]32)n1 (single isomer, unassigned) [Example 126a]

Reference: patent publication US20260124214A1, “HETEROCYCLIC COMPOUNDS FOR USE IN THE TREATMENT OF CANCER” (ARTIOS PHARMA LIMITED, priority 2021, published 2026)
